Assay results reported in PMC7997574, “Lead Optimization of Benzoxazolone Carboxamides as Orally Bioavailable and CNS Penetrant Acid Ceramidase Inhibitors” (Journal of Medicinal Chemistry, 2020).
Where two headings read alike, the source gives them in different places.

Key:
GalSph (d18:1) = assay: Brain GalSph levels in Twitcher mice (Krabbe's disease model); format: in vivo, mouse; conditions: for reduction of GalSph (d18:1) levels in the brains: Twitcher mice; for GalSph(d18:1) change (Figure 8): brain
Description: (§1) 4L;C* mice (C57BL/6 J/129SvEV) were randomly assigned to three treatment groups (N = 4–8 with mixed males and females) and dosed once a day i.p. with 90 or 30 mg kg^–1 of 22m or vehicle. Treatment started at 5 days of age for a duration of 14 days. The application volume was set to 10 μL per gram of body weight, and dosage was adjusted accordingly. Animals of all groups were sacrificed 1 h after the last dose, and the brain tissues and plasma were collected. The left brain containing cortex, cerebella, thalamus, and brainstem was analyzed for SphL levels by MS. Data were analyzed using the Student t test. The right brain containing cortex, cerebella, thalamus, and brainstem and plasma were analyzed for drug levels of 22m. All mice were housed under pathogen-free conditions in the animal facility, and animal experiment was performed according to the IACUC approved protocol (2018-0056) at Cincinnati Children’s Hospital Research Foundation. Wild Type (WT) (GALC+/+) and Twitcher (Twi) (GALC–/−) mice were genotyped by PCR as previously described.[58] Twi mice were randomly assigned to three treatment groups (N = 3 males + N = 3 females for each group) and dosed once a day i.p. with 90 or 30 mg kg^–122m or vehicle for a duration of 20 days. Treatment started at 10 days of age. The application volume was set to 10 μL per gram of body weight, and dosage was adjusted accordingly. Two groups (N = 3 males + N = 3 females for each group) of WT controls treated with vehicle or high dose (90 mg kg^–1) of 22m were also included in the study. Animals of all groups were sacrificed 1 h after the last dose, and the brain tissues and plasma were collected. The left brain containing cortex, cerebella, thalamus, and brainstem was analyzed for SphL levels by MS. Data were analyzed using the Student t test. The right brain containing cortex, cerebella, thalamus, and brainstem and plasma were analyzed for drug levels of 22m. All animal work in this study was performed in accordance with approved animal protocols from the Animal Care and Use Committee at the University of Illinois at Chicago.

[1] = Plasma and brain concentrations in 4L;C* mice; format: in vivo, mouse; conditions: 1 h after last dose (day 14)
Description: as §1

AC = target: T1, AC (Homo sapiens, UniProt Q13510); assay: Fluorogenic hAC assay on hAC-enriched lysate of HEK293 cells; format: biochemical; set-up: expressed in transfected cells; conditions: hAC expressed in HEK-293 cells; read-out: hAC IC50 (μM)±SD
T1 sequence (Q13510 22-395): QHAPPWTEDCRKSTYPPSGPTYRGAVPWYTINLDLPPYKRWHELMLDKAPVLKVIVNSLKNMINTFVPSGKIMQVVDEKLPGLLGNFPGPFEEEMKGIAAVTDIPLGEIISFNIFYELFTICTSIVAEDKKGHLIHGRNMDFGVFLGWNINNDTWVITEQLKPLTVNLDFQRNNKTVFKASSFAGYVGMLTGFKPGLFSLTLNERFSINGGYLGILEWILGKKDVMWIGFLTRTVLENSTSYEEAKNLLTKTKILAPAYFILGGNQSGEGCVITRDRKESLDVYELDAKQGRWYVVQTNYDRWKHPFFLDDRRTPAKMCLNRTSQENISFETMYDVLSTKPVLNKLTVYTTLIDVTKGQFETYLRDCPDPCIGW
Method in brief: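 Lysosome-enriched lysate (2 μg protein) from HEK293 cells stably expressing hAC, in 25 mM NaOAc pH 4.5. Pre-incubated 10 min with compound, then incubated 3 h at 37 °C with fluorogenic substrate Rbm14–12 (5 μM final, ~KM). Fluorescence (355/460 nm) read after NaIO4 development; IC50 by nonlinear regression, mean of ≥3 experiments.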

In the case of `CC(C)CNC(=O)n1c(=O)oc2cc(C3CCN(C)CC3)ccc21` [22m, N-Isobutyl-6-(1-methyl-4-piperidyl)-2-oxo-1,3-benzoxazole-3-carboxamide], the “reduction of GalSph (d18:1) levels in the brains” value (GalSph (d18:1); 30 mg kg^–1 i.p. once daily for 20 days) is reported as 41%, the “reduction of GalSph (d18:1) levels in the brains” value (GalSph (d18:1); 90 mg kg^–1 i.p. once daily for 20 days) is reported as 72% and the “GalSph(d18:1) change (Figure 8)” value (GalSph (d18:1); Twi 30 mg/kg i.p.) is reported as -41%. For the same compound, the “GalSph(d18:1) change (Figure 8)” value (GalSph (d18:1); Twi 90 mg/kg i.p.) was -72%, the concentration at 1 h ([1]; 4L;C* mice, 90 mg kg^–1 i.p., read-out: Cb, u (μM) brain unbounded concentration) was 2.61 µM and the concentration at 1 h ([1]; both sexes, 4L;C* (C57BL/6 J/129SvEV), mouse, brain, ip, 30 mg kg^–1, 4L;C* mice, 30 mg kg^–1 i.p., read-out: Cb (μM) brain concentration) was 110 µM. It also gave a concentration at 1 h ([1]; both sexes, 4L;C* (C57BL/6 J/129SvEV), mouse, brain, ip, 30 mg kg^–1, 4L;C* mice, 30 mg kg^–1 i.p., read-out: Cb, u (μM) brain unbounded concentration) of 0.77 µM, a concentration at 1 h ([1]; both sexes, 4L;C* (C57BL/6 J/129SvEV), mouse, brain, ip, 90 mg kg^–1, 4L;C* mice, 90 mg kg^–1 i.p., read-out: Cb (μM) brain concentration) of 373 µM and a concentration at 1 h ([1]; both sexes, 4L;C* (C57BL/6 J/129SvEV), mouse, brain, ip, 90 mg kg^–1, 4L;C* mice, 90 mg kg^–1 i.p., read-out: Cb, u (μM) brain unbounded concentration) of 2.6 µM. For the same compound, the concentration at 1 h ([1]; both sexes, 4L;C* (C57BL/6 J/129SvEV), mouse, plasma, ip, 30 mg kg^–1, 4L;C* mice, 30 mg kg^–1 i.p., read-out: Cp (μM) plasma concentration) was 3.08 µM, the concentration at 1 h ([1]; both sexes, 4L;C* (C57BL/6 J/129SvEV), mouse, plasma, ip, 30 mg kg^–1, 4L;C* mice, 30 mg kg^–1 i.p., read-out: Cp,u (μM) plasma unbounded concentration) was 0.42 µM and the concentration at 1 h ([1]; both sexes, 4L;C* (C57BL/6 J/129SvEV), mouse, plasma, ip, 90 mg kg^–1, 4L;C* mice, 90 mg kg^–1 i.p., read-out: Cp (μM) plasma concentration) was 16.8 µM. The concentration at 1 h ([1]; both sexes, 4L;C* (C57BL/6 J/129SvEV), mouse, plasma, ip, 90 mg kg^–1, 4L;C* mice, 90 mg kg^–1 i.p., read-out: Cp,u (μM) plasma unbounded concentration) was 2.32 µM and the IC50 (AC) was 0.166 ± 0.089 µM.
